Format in all cases: cell-based, human
Data set [1] has as its system IL-1α. Put plainly: IL-1α secretion from TESTSKIN II tissue (ELISA). The following applies: test materials neat, dexamethasone 100 μM.
Description: (§1) The skin tissue used in this study, TESTSKIN II (Organogenesis Inc., Canton, Mass.), is constructed from human skin with anatomical structures and physiological functions that simulate actual living skin. This tissue has an upper epidermal layer with well-differentiated keratinocytes and stratum corneum and a lower dermal layer with living fibroblasts able to produce collagen matrix.
(§2) The test materials were evaluated for exposure periods of 4, 8, and 24 hours, and their toxicity was evaluated for an exposure period of 24 hours. Test materials 2, 4, 6, and 8 were used neat. […] All dilutions were made in growth media, and assays were performed in triplicate.
All supplies and handling equipment are sterilized, and techniques for maintaining sterility are used. Skin tissue is punched out using an 8 mm biopsy punch from the middle section and transferred to a well of a six-well plate containing transwell inserts and 1 mL of growth media. Tissues are transferred to a humidified 37° C. incubator supplied with 10% CO2 and incubated overnight.
Test materials to be used are dosed on a sterile dosing pad (10 μL/pad) and placed on top of tissue. Dosed tissues are returned to the incubator and incubated for a specified amount of time (e.g., 4 hours), after which the supernatants are replaced with fresh media. Collected supernatants are used for PGE2 and GM-CSF assays.
Assays are performed in triplicate, and the numbers shown correspond to averages of the triplicate treatments.
Tissues are pre-incubated with test materials for 4 hours prior to being stimulated by PMA or Histamine. Secreted IL-1α, PGE2 and GM-CSF are measured using the ELISA method.
For data set [2], the system named is TESTSKIN II. Put plainly: MTT reduction toxicity assay on TESTSKIN II skin tissue. The following applies: MTT % survival, 24-hour exposure; PMA 10 ng/mL.
Description: The release of PGE2 and GM-CSF from skin tissue provides a measure of protective potential following pre-incubation with test materials, whereas the reduction of MTT (3-[4,5-dimethylthiazol-2yl]-2,5-diphenyl-2H-tetrazolium bromide) provides an estimate of toxicity potential.
as §1, §2
All supplies and handling equipment are sterilized, and techniques for maintaining sterility are used. […]
Tissues free of test materials are incubated with 2 mg/mL of MTT solution (made up in growth media) in a humidified 37° C. incubator supplied with 10% CO2 for 2 hours. […] Spent MTT solution is read in a 96 well flat bottom plate at A540. […]
The test system of data set [3] is PGE2. The data set is described as follows: PGE2 secretion from TESTSKIN II tissue (competitive ELISA). Particulars: after 24 hours of exposure. On the technique in general: ELISA stands for enzyme-linked immunosorbent assay.
Description: The anti-inflammatory potential of a composition according to the present invention that includes a combination of linseed extract and licorice extract was evaluated as described herein. The release of PGE2 and GM-CSF from skin tissue provides a measure of protective potential following pre-incubation with test materials, whereas the reduction of MTT (3-[4,5-dimethylthiazol-2yl]-2,5-diphenyl-2H-tetrazolium bromide) provides an estimate of toxicity potential.
The skin tissue used in this study, TESTSKIN II (Organogenesis Inc., Canton, Mass.), is constructed from human skin with anatomical structures and physiological functions that simulate actual living skin. […]
The test materials were evaluated for exposure periods of 4, 8, and 24 hours, and their toxicity was evaluated for an exposure period of 24 hours. […]
Four controls are included: total activity, non-specific binding, maximum binding, and substrate blank. […] Following incubation, 50 μL of stop solution (trisodium phosphate solution) is added and the optical density is measured immediately at 405 nm (reference wavelength of 570-590 nm) using a microplate spectrophotometer. The amount of PGE2 present in the supernatant is determined by comparison to the calibration curve generated by the recombinant PGE2 standard. […]

As to `C[C@@H]1C[C@H]2[C@@H]3CCC4=CC(=O)C=C[C@]4(C)[C@@]3(F)[C@@H](O)C[C@]2(C)[C@@]1(O)C(=O)CO` [Dexamethasone, dexamethasone], the IL-1α secretion in data set [1] (0 Hr, average of triplicate ± SD) was found to be 22.00 ± 9.69; in data set [1] (8 Hr), 24.45 ± 9.47; in data set [1] (24 Hr), 25.42 ± 8.94.
Consider `CCCCCCCCCCCCCC(=O)O[C@@H]1[C@@H](C)[C@@]2(O)[C@@H](C=C(CO)C[C@]3(O)C(=O)C(C)=C[C@@H]23)[C@@H]2C(C)(C)[C@]12OC(C)=O` [PMA, phorbol myristate acetate], for which the “toxicity to TESTSKIN II tissue, in words” value in data set [2] is given as “mildly toxic”. In addition, the “induction of PGE2 secretion by stimulus, in words” value in data set [3] is reported as “fails to induce PGE2 secretion above the background level”.

The values are drawn from US6881427B2, “Topical anti-inflammatory composition containing linseed and licorice extracts” (Alticor Inc., priority 2002, dated 2005).
